In the NIST ThermoML archive (doi:10.1021/je0341357):
Numbers after ± are expanded uncertainties.

Conditions: Liquid; Visual observation in an unstirred cell

Structure (SMILES)	Critical temperature [K]
C/C=C\CCC [(Z)-2-hexene]	513.4 ± 0.9
CCCCCC(C)N (centres undefined) [1-methylhexylamine]	598 ± 2.1
CCCCC=C(C)C [2-methyl-2-heptene]	568.9 ± 1.1
C/C=C\C(C)C [(Z)-4-methyl-2-pentene]	496.3 ± 0.7
CC/C=C/CCC [3-heptene, (E)-]	538.6 ± 0.7
C=C(C)CC [2-methyl-1-butene]	467 ± 0.5
C/C=C/CCCCC [(E)-2-octene]	569.8 ± 0.4
C=C(C)C(C)C [2,3-dimethyl-1-butene]	497.7 ± 0.9
C=CCC(C)C [4-methyl-1-pentene]	493.1 ± 0.5
NC1CCCCC1 [cyclohexylamine]	626.8 ± 0.9
C=C(C)CCCC [2-methyl-1-hexene]	541.8 ± 1.1
CC(C)(C)C1CCCCC1 [1,1-dimethylethylcyclohexane]	652 ± 0.4
CC(C)CC1CCCCC1 [2-methylpropylcyclohexane]	642.1 ± 0.6
C/C=C/CCCC [2-heptene, (E)-]	542.8 ± 0.4
CCCCNCCCC [dibutylamine]	607.5 ± 1.1
CCCCCCNC [1-hexanamine, N-methyl-]	592 ± 1
C1CCCCCCC1 [cyclooctane]	647.5 ± 0.4
CCC1CCCCC1 [ethylcyclohexane]	606.9 ± 0.4
C1CCCCC1 [cyclohexane]	553.6 ± 1.1
CC(C)C1CCCCC1 [(1-methylethyl)cyclohexane]	632.2 ± 0.4

Structure (SMILES)	Critical temperature [K]
CCCCC1CCCCC1 [butylcyclohexane]	653.1 ± 0.4
CCC=C(C)C [2-methyl-2-pentene]	509.3 ± 0.5
C=CCC(C)(C)C [4,4-dimethyl-1-pentene]	516 ± 4
CCC/C=C/CCC [(E)-4-octene]	566.3 ± 1.1
C=CCCC(C)C [5-methyl-1-hexene]	528.7 ± 0.4
C=C(C)CCC [2-methyl-1-pentene]	521 ± 0.4
C=C(C)CCCCC [2-methyl-1-heptene]	567.5 ± 0.9
C=CC(C)(C)C [3,3-dimethyl-1-butene]	477.4 ± 0.9
CCCNCCC [dipropylamine]	555.8 ± 1.1
CC/C=C\CC [(Z)-3-hexene]	510.2 ± 1.4
CCCCCCN [1-hexanamine]	592.3 ± 0.7
CC(C)N [2-propanamine]	472.5 ± 0.4
C/C=C/CCC [(E)-2-hexene]	509 ± 0.7
C/C=C\CCCC [2-heptene, (Z)-]	548.5 ± 0.6
CC(C)=C(C)C [2,3-dimethyl-2-butene]	521 ± 0.9
CC/C=C/CC [(E)-3-hexene]	507.4 ± 2
CCCC1CCCCC1 [1-cyclohexylpropane]	630.8 ± 0.9
C=C(C)C(C)CC (centres undefined) [2,3-dimethyl-1-pentene]	533.6 ± 4.3
CCCN [propan-1-amine]	499.2 ± 0.4
